In brackets after ≈: the same amount, converted by molar mass. Read-outs that look alike come from different tables or passages of the source. Starred links: 1 amine or outer side, 2 acyl side, 3 side chain; linkers in the order of their positions; H or OH if unused. Positions of bridges follow the written chain, without caps; N, C: chain ends. Non-standard residues stand in square brackets, D forms with d. Residues, ends and D or L forms follow the SMILES beside them. *: point of attachment. Orn(4R-OH,5R-OH) = O=C([C@H](C[C@@H](O)[C@@H](O)N[*:3])N[*:1])[*:2]; hTyr(3S-OH,4S-OH) = N[C@H](C(=O)O)[C@H](O)[C@@H](O)c1ccc(O)cc1; Pro(3S-OH,4S-Me) = C[C@H]1CN[C@H](C(=O)O)[C@H]1O; Benzoyl(4-octyloxy) = CCCCCCCCOc1ccc(C(=O)*)cc1; Gln(3R-OH) = NC(=O)C[C@@H](O)[C@H](N)C(=O)O; Hyp = O=C(O)[C@@H]1C[C@@H](O)CN1; Tridecanoyl = CCCCCCCCCCCCC(=O)*; Myristoyl = CCCCCCCCCCCCCC(=O)*; Lauroyl = CCCCCCCCCCCC(=O)*; 4Abz = Nc1ccc(C(=O)O)cc1
Experiments:
physchem = conditions: 66% aqueous dimethylformamide, pH 7.32
Neurospora crassa 846 = assay: Agar-plate disc-diffusion test (zone of inhibition); type: cell-based; conditions: methanol suspension 1 mg/ml, 7-mm disc, 24—48 hours at 25—37°C, * = distinct zone with regrowth of organism around disc
Experimental: (§1) In Table IV activity is measured by the size (diameter in mm) of the observed zone of inhibition of the microorganism produced by the test compound. In Table V activity is measured by the minimal inhibitory concentration (MIC) of the substance (mg/disc) required to inhibit growth of the test organism. Table VI gives the results of the testing in vitro of the p-(n-octyloxy)benzoyl derivative of A-30912A nucleus against five strains of Candida albicans by the agar-dilution method. In Table VI activity is measured by the minimal inhibitory concentration (MIC) of the substance (mg/ml) required to inhibit the test organism.

[1] = test system: Saccharomyces pastorianus X—52; assay: as above; type: cell-based; conditions: methanol suspension 1 mg/ml, 7-mm disc, incubation 24—48 hours at 25—37°C
Experimental: as §1

[2] = test system: Trichophyton mentagrophytes A—23; assay: as above; type: cell-based; conditions: read-out: Size of Zone of Inhibition (mm)
Experimental: as §1

Candida albicans A-26 = assay: Therapeutic activity against systemic C. albicans infection in mice; type: in vivo
Experimental: The results of in vivo tests to evaluate the effectiveness of the derivatives against an infection caused by Candida albicans A-26 in mice are given in Table VII. In these tests activity is measured by the ED50 value (the dose in mg/kg required to cure 50% of the test animals). Where an ED50 value was not obtained, activity is indicated by the lowest dose at which a significant antifungal effect is observed. In these tests, groups of male albino mice (specific pathogen free), weighing 18 to 20 grams, are infected intravenously with Candida albicans A-26. The animals are X-irradiated 24 hours prior to infection at about 50 roentgens per minute for 8 minutes (400 total dose) to reduce immune responses to the infecting organism. At 0, 4, and 24 hours post infection each group of mice is given graded doses subcutaneously of the test compound as a suspension in 33% polyethylene glycol(PEG)-water. The day of death for each animal is recorded.

in vivo = conditions: mouse, po, 416 mg/kg
Experimental: (§2) At time intervals, blood samples are taken from the orbital sinus and are assayed for antibiotic activity as follows: A 7-mm disc containing 20 ml of whole blood is placed on agar seeded with Aspergillus montevidensis A35137. After 40 hours incubation at 30°C, zones of inhibition from the blood samples are compared to a standard obtained from the test compound, and the amount of compound in the blood sample is calculated.

[3] = Blood levels after oral administration in mice (bioassay vs. Aspergillus montevidensis); conditions: mouse, 416 mg/kg
Experimental: as §2

Candida albicans [4] = assay: Agar-dilution MIC against five Candida albicans strains; type: cell-based; conditions: agar-dilution method
Experimental: as §1

Candida albicans [5] = conditions: characteristics from German Offenlegungschrift 2,628,965 / U.S. Patent 4,173,629; cited from earlier work
[6] = Neurospora crassa 846, read-out: Size of Zone of Inhibition (mm)
[7] = Saccharomyces pastorianus X—52, read-out: Size of Zone of Inhibition (mm)
[8] = Candida albicans, A26, light or radiation study, sc, X-irradiated mice infected i.v. with C. albicans A-26, subcutaneous doses at 0, 4 and 24 hours, lowest dose with significant antifungal effect (survival time), read-out: Lowest Active Dose
[9] = Candida albicans, A26, light or radiation study, sc, X-irradiated mice infected i.v. with C. albicans A-26, subcutaneous doses at 0, 4 and 24 hours post infection, suspension in PEG-water, dose curing 50% of animals, read-out: ED50

C[C@@H](O)[C@@H]1NC(=O)[C@H]([C@H](O)[C@@H](O)c2ccc(O)cc2)NC(=O)[C@@H]2C[C@@H](O)CN2C(=O)[C@H]([C@@H](C)O)NC(=O)[C@@H](N)C[C@@H](O)[C@@H](O)NC(=O)[C@@H]2[C@@H](O)[C@@H](C)CN2C1=O [A-30912A nucleus] (H-[Orn(4R-OH,5R-OH)]T[Hyp][hTyr(3S-OH,4S-OH)]T[Pro(3S-OH,4S-Me)]; lactam 1-C)
pKa (physchem): ~7.35

CCCCCCCCCCCCC(=O)N[C@H]1C[C@@H](O)[C@@H](O)NC(=O)[C@@H]2[C@@H](O)[C@@H](C)CN2C(=O)[C@H]([C@@H](C)O)NC(=O)[C@H]([C@H](O)[C@@H](O)c2ccc(O)cc2)NC(=O)[C@@H]2C[C@@H](O)CN2C(=O)[C@H]([C@@H](C)O)NC1=O [Reference Example 1] (Tridecanoyl-[Orn(4R-OH,5R-OH)]T[Hyp][hTyr(3S-OH,4S-OH)]T[Pro(3S-OH,4S-Me)]; lactam 1-C)
zone of inhibition at 1000 µg/mL (Neurospora crassa 846; [6]): 32 mm | zone of inhibition at 1000 µg/mL [1, 7]: 21 mm | zone of inhibition at 1000 µg/mL ([2]; Trichophyton mentagrophytes A—23, methanol suspension 1 mg/ml, 7-mm disc, 24—48 hours at 25—37°C, * = distinct zone with regrowth of organism around disc): 60 mm | minimal effective dose (Candida albicans A-26; [8]): 20 mg/kg | ED50 (Candida albicans A-26; [9]): 34 mg/kg | concentration at 4 h (in vivo): 100 µg/mL

CCCCCCCCCCCC(=O)Nc1ccc(C(=O)N[C@H]2C[C@@H](O)[C@@H](O)NC(=O)[C@@H]3[C@@H](O)[C@@H](C)CN3C(=O)[C@H]([C@@H](C)O)NC(=O)[C@H]([C@H](O)[C@@H](O)c3ccc(O)cc3)NC(=O)[C@@H]3C[C@@H](O)CN3C(=O)[C@H]([C@@H](C)O)NC2=O)cc1 [Reference Example 7, N-(n-dodecanoyl)-p-aminobenzoyl derivative of A-30912A nucleus] ({Lauroyl-4Abz}-[Orn(4R-OH,5R-OH)]T[Hyp][hTyr(3S-OH,4S-OH)]T[Pro(3S-OH,4S-Me)]; lactam 1-C)
zone of inhibition at 1000 µg/mL (Neurospora crassa 846; Neurospora crassa, 846, 48 h, read-out: Size of Zone of Inhibition (mm), Neurospora crassa 846): 33 mm | zone of inhibition at 1000 µg/mL ([1]; Saccharomyces pastorianus, 48 h, read-out: Size of Zone of Inhibition (mm), Saccharomyces pastorianus X—52): 21 mm | zone of inhibition at 1000 µg/mL ([2]; Trichophyton mentagrophytes, 48 h): 55 mm | ED50 (Candida albicans A-26; Candida albicans, A26, light or radiation study, sc): 15 mg/kg | minimal effective dose (Candida albicans A-26; Candida albicans, A26, light or radiation study, sc, read-out: Lowest Active Dose (mg/kg), X-irradiated mice infected i.v. with C. albicans A-26, subcutaneous doses at 0, 4 and 24 hours, lowest dose with significant antifungal effect (survival time)): 10 mg/kg | concentration at 4 h [3]: 830 µg/mL

CCCCCCCCOc1ccc(C(=O)N[C@H]2C[C@@H](O)[C@@H](O)NC(=O)[C@@H]3[C@@H](O)[C@@H](C)CN3C(=O)[C@H]([C@@H](C)O)NC(=O)[C@H]([C@H](O)[C@@H](O)c3ccc(O)cc3)NC(=O)[C@@H]3C[C@@H](O)CN3C(=O)[C@H]([C@@H](C)O)NC2=O)cc1 [Reference Example 13, p-(n-octyloxy)benzoyl derivative of A-30912A nucleus] ({Benzoyl(4-octyloxy)}-[Orn(4R-OH,5R-OH)]T[Hyp][hTyr(3S-OH,4S-OH)]T[Pro(3S-OH,4S-Me)]; lactam 1-C)
zone of inhibition at 1000 µg/mL (Neurospora crassa 846; [6]): 23 mm | zone of inhibition at 1000 µg/mL [1, 7]: 18 mm | MIC (Candida albicans [4]; Candida albicans strain A26, read-out: MIC): 0.312 µg/mL (≈ 0.303 µM) | MIC (Candida albicans [4]; Candida albicans strain SBH 16): 0.312 µg/mL (≈ 0.303 µM) | MIC (Candida albicans [4]; Candida albicans strain SBH 28): 0.312 µg/mL (≈ 0.303 µM) | MIC (Candida albicans [4]; Candida albicans strain SBH 29): 0.312 µg/mL (≈ 0.303 µM) | MIC (Candida albicans [4]; Candida albicans strain SBH 31): 0.312 µg/mL (≈ 0.303 µM) | minimal effective dose (Candida albicans A-26; [8]): 10 mg/kg | ED50 (Candida albicans A-26; [9]): 13 mg/kg | ED50 (Candida albicans A-26; X-irradiated mice infected i.v. with C. albicans A-26, subcutaneous doses at 0, 4 and 24 hours post infection, suspension in PEG-water, dose curing 50% of animals): 22.2 mg/kg | Lowest Active Dose (Candida albicans A-26; X-irradiated mice infected i.v. with C. albicans A-26, subcutaneous doses at 0, 4 and 24 hours, lowest dose with significant antifungal effect (survival time)): >12.5 mg/kg | concentration at 4 h [3]: 23000 µg/mL

CCCCCCCCCCCCCC(=O)N[C@H]1C[C@@H](O)[C@@H](O)NC(=O)[C@@H]2[C@@H](O)[C@@H](C)CN2C(=O)[C@H]([C@H](O)CC(N)=O)NC(=O)[C@H]([C@H](O)[C@@H](O)c2ccc(O)cc2)NC(=O)[C@@H]2C[C@@H](O)CN2C(=O)[C@H]([C@@H](C)O)NC1=O [S 31794/F-1] (Myristoyl-[Orn(4R-OH,5R-OH)]T[Hyp][hTyr(3S-OH,4S-OH)][Gln(3R-OH)][Pro(3S-OH,4S-Me)]; lactam 1-C)
antifungal activity (Candida albicans [5]): has antifungal activity, especially against Candida albicans
